This is an account of results in ChEMBL document CHEMBL3507680, “University of Dundee, Gates Library screen for HepG2 cell viability”.

A short description of this data set: Human HepG2 cell viability assay in 384 well format. The format is toxicity, cell-based. More on the design: dose 125 nL, time 70.5 hour; concentration not given beside the values. Particulars: HepG2 cells, read-out: Inhibition.
In the case of `CN(Cc1nc2ccsc2c(=O)[nH]1)C[C@@H]1CCCN2CCCC[C@H]12`, the cytotoxicity at 70.5 h was 14.5%.
On to `O=C(NCCN1CCNCC1)c1nc2ccccc2c(=O)[nH]1`, for which the cytotoxicity at 70.5 h was -2.57%.
The result for `COc1cccc(CCC2CCCN(C(C)=O)C2)c1` (stereo unspecified) reads -1.99%.
As for `CC(C)CNC(=O)Nc1cccc(OCC#N)c1`, the cytotoxicity at 70.5 h is -7.35%.
Regarding `CCCC(NC(=O)c1cscc1C)c1nnn[nH]1` (stereo unspecified), the cytotoxicity at 70.5 h is -2.41%.
The value for `CS(=O)(=O)N1CCO[C@@H]2CN(C(=O)N3CCCC3)CC[C@@H]2C1` was -8.13%.
With `O=C(NCc1cccnc1)Nc1ccn(CC(F)F)n1`, the cytotoxicity at 70.5 h is -3.22%.
The result for `CCOCCn1c(=O)[nH]c2cc(C(=O)N(C)Cc3cc(C)[nH]n3)ccc21` reads -6.23%; that for `COc1cc(CCC(=O)N2CCC(c3cc4ncccc4[nH]3)CC2)on1`, 22%; that for `Cc1cnc2n(c1=O)C(CC(=O)NCc1ccccc1Cl)CS2` (stereo unspecified), 35%.
On to `Cc1nc(CN(C)C2CCN(CC(=O)N(C)CCC#N)C2)no1` (stereo unspecified), for which the cytotoxicity at 70.5 h worked out at 0.0577%.
The result for `CC(CNC(=O)c1cnc[nH]1)Oc1ccccc1Br` (stereo unspecified) reads -15.7%; that for `CSCc1cc(F)ccc1CNCc1cccnc1`, -6.28%; that for `Cc1cccnc1CN1CCN(C(=O)c2ccn(C(C)(C)C)c2)CC1`, 40.4%.
The value for `O=C(NC1CCS(=O)(=O)c2ccccc21)c1cccs1` (stereo unspecified) was -7.77%.
The result for `Cc1nc(CN2CCOCC3(CCN(c4ncccn4)C3)C2)cs1` (stereo unspecified) reads -3.76%; that for `Cn1nc(C2CCNC2)c2c(C(=O)NCC(F)(F)F)cc(C3CC3)nc21` (stereo unspecified), -7.49%; that for `Cc1cc(C(=O)N2CCCC(c3cc(C(F)(F)F)[nH]n3)C2)on1` (stereo unspecified), -4.58%.
On to `Cc1ccc(OCCSC2=NCCN2)cc1`, for which the cytotoxicity at 70.5 h was -4.93%.
As for `CN(C)CCCn1ccnc1C1CCN(c2cccc(C(=O)O)n2)CC1`, the cytotoxicity at 70.5 h was -5.15%.
The result for `COc1ccc(-c2noc(Cn3cnc(C)c3)n2)c(OC)c1OC` reads -0.844%; that for `Cc1nc(CC(C)C)cc(C(=O)N2C[C@@H](CN(C)C)[C@@H](CO)C2)n1`, 6.25%.
For the compound `COc1ccccc1Oc1cncc(C2CCCN(CC(N)=O)C2)n1` (stereo unspecified), the cytotoxicity at 70.5 h was determined as 11.9%.
The value for `CCO[C@H]1CN(CC2CCOCC2)[C@@H]2CCCO[C@H]12` was 9.78%; that for `O=C1NCCCCC1Sc1ccccc1F` (stereo unspecified) was -11.2%.
The value for `N#Cc1ccc(N2CCCC3(CCN(c4cncnc4)C3=O)C2)nc1` (stereo unspecified) was 7.49%; that for `CC(C)CN1CCN(C(=O)c2ccncc2F)Cc2cccnc21` was -9.62%; that for `Cc1ccc(CN2CCC3(CC2)C(=O)N(C)c2ccccc23)s1` was 0.079%.
In the case of `OC1(CNc2cccc(F)c2)CCNCC1`, the cytotoxicity at 70.5 h is -3.17%.
The result for `CN(CCc1cn[nH]c1)C(=O)CCc1ccc(Cl)cc1` reads -0.186%; that for `Fc1cnccc1CN1CCC2(CCNCC2)C1`, -10.4%; that for `CCC(O)CNc1ccc(-c2nc(CC(C)C)no2)cn1` (stereo unspecified), -14.3%.
As to `Cc1ncccc1OC1(C(=O)NCCc2ccccn2)CCNCC1`, the cytotoxicity at 70.5 h was 13.7%.
The value for `CCN(C(=O)C(C)S(=O)(=O)Cc1nc(C)no1)c1ccccc1` (stereo unspecified) was -96.7%; that for `Cc1c(F)cccc1S(=O)(=O)NCCN` was -0.256%; that for `CCOc1nnc(CN2CCC(c3cc4ccccc4[nH]3)CC2)s1` was -5.08%.
The result for `NC(=O)c1cc(C2CCCN(C(=O)CCc3ccsc3)C2)n[nH]1` (stereo unspecified) reads -2.62%.
Take `CC(C)NC(=O)CN1CCC2(CC1)OCCO2`: the cytotoxicity at 70.5 h is -2.05%.
As to `CCC(CO)N(Cc1ccsc1)Cc1ccccc1C#N` (stereo unspecified), the cytotoxicity at 70.5 h was -11.3%.
The value for `CC(C(=O)NCc1ccnc(N2CCN(C)CC2)c1)S(C)(=O)=O` (stereo unspecified) was 22.3%; that for `Cc1c(C(C)NC2CSCCSC2)cnn1-c1ccc(F)cc1F` (stereo unspecified) was -9.32%.
The result for `O=C(CNc1cccc(CC(F)(F)F)c1)NCc1ccco1` reads -4.32%; that for `COCCCN1CC2(CCCCN2C(=O)C2CCCCC2)CC1=O` (stereo unspecified), -3.42%.
With `Oc1ccccc1CN1CCC(n2cc(-c3ccc(F)cc3)nn2)CC1`, the cytotoxicity at 70.5 h was -4%.
The result for `O=C(C1SCCc2sccc21)N1CC(O)C1` (stereo unspecified) reads -5.69%.
The value for `CC(C)Cn1cncc1CNC1CCSCC1` was 42.7%; that for `CC(NC(=O)NCCCn1ccnc1)c1ccc2c(c1)OCCCO2` (stereo unspecified) was -10.6%; that for `CCc1nc(CCNC(=O)Nc2cccc(C(=O)NC)c2C)cs1` was 9.84%.
The value for `CN(Cc1cn2ccccc2n1)C1CCCN(c2cccnn2)C1` (stereo unspecified) was 12.5%; that for `COc1ccc(C(O)CNC(=O)NCc2c(C)cc(C)[nH]c2=O)cc1` (stereo unspecified) was -5.03%; that for `CC(=O)N1CCC(N2CCN(Cc3ccc(C)o3)C(CCO)C2)CC1` (stereo unspecified) was -6.87%.
For the compound `COc1c(CNCCNC(=O)c2ccc(C)cc2)c(C)nn1C`, the cytotoxicity at 70.5 h worked out at 8.52%.
As for `CNC(=O)NC(=O)CCN1CCN(c2ccc(C(=O)OC)cc2)CC1C` (stereo unspecified), the cytotoxicity at 70.5 h was -9.55%.
Regarding `Cn1ncc2c(=O)[nH]c(CN3CCCC3CC3CCCCC3)nc21` (stereo unspecified), the cytotoxicity at 70.5 h was -9.61%.
The value for `OCCN(Cc1ccncc1)CC1(c2ccc(Cl)cc2)CCCC1` was 1.74%.
As for `CCN(CCCNC(=O)Nc1ccccc1C(C)C)S(C)(=O)=O`, the cytotoxicity at 70.5 h was -4.67%.
For the compound `CCC(=O)N1C[C@@H](C(=O)NC)[C@H](c2ccnc(N3CCCC3)n2)C1`, the cytotoxicity at 70.5 h is -3.94%.
As for `CC(NC(=O)C1=NN(C)C(=O)CC1)c1cccc(Cl)c1` (stereo unspecified), the cytotoxicity at 70.5 h was -85.8%.
The result for `O=C(Cc1ccccc1Cl)Nc1cc(N2CCCC2)ncn1` reads -0.171%; that for `Cc1cc(CNC(=O)NCc2ccccc2N2CCOCC2)no1`, 1.76%; that for `O=C1CO[C@H]2CN(Cc3ccc4c(c3)OCO4)C[C@H]2N1`, -7.08%.
The value for `Cc1cnc(N(C)CCCc2cnn(C)c2)nc1N(C)C` was 14.8%.
The value for `CN(C1CCN(c2ccccn2)CC1)S(=O)(=O)c1ccc(F)cc1` was -6.89%.
Take `Cc1noc(C)c1CN1CCN(CC2CC2)c2ncccc2C1`: the cytotoxicity at 70.5 h was -5.96%.
The result for `c1cncc(N2CCC3(CCCN(c4ccncc4)C3)CC2)c1` reads -6.14%.
The result for `CN(C)c1ccc(C(=O)Nc2ccn(CC(N)=O)n2)cn1` reads -8.63%.
Regarding `CCOC(=O)CNC(=O)c1cccnc1Oc1ccc(Cl)cc1`, the cytotoxicity at 70.5 h was -9.7%.
With `N#CC(NC(=O)CS(=O)(=O)C1CCCC1)c1ccc(F)cc1F` (stereo unspecified), the cytotoxicity at 70.5 h is -10.4%.
The value for `Cc1nc(-c2c(-c3ccccc3)ncn2[C@H]2C[C@@H](C(=O)O)N(C)C2)co1` was -11.1%; that for `Cc1ccc(N2CCCC(N(C)c3nn4cc(C)nc4s3)C2)nn1` (stereo unspecified) was -3.89%.
The result for `CCc1cc(O)nc(C2CCCN2C(=O)c2cccnc2)n1` (stereo unspecified) reads 20.7%.
With `CC(C)CC(=O)N1CC[C@@H]2[C@H](CC1)N(S(C)(=O)=O)CCS2(=O)=O`, the cytotoxicity at 70.5 h is -4.28%.
The result for `Cc1c(C(=O)N2CC(C)(C)C2(C)C)nnn1-c1cccc2cnccc12` reads -2.78%.
The value for `Cc1nc(-c2ccc(CC(=O)N3CCNC(=O)C3)cc2)cs1` was 9.75%; that for `CN1CCOC(CN(C(=O)CN2CCCC2=O)c2nccs2)C1` (stereo unspecified) was 9.36%.
The result for `O=C(c1cccc2c1OCO2)N1CCCC(n2ccnc2)C1` (stereo unspecified) reads -10.3%; that for `O=C1CC(c2cccnc2)C2(CCN(C(=O)N3CCOCC3)CC2)N1` (stereo unspecified), -12.4%.
With `COc1ccc(CN2CCSCC2)c(OC)c1`, the cytotoxicity at 70.5 h was -6.31%.
The value for `COc1ccc2c(c1)CC(NCCCn1nc(C)nc1C)CC2` (stereo unspecified) was -9.14%.
For `Cc1ccc(NC2CCN(C(=O)c3cc(C(N)=O)cs3)CC2)nn1`, the cytotoxicity at 70.5 h is 11.5%.
In the case of `O=C(c1ncccn1)N1C[C@H]2CCC[C@@]2(COCc2cccnc2)C1`, the cytotoxicity at 70.5 h stood at 15.8%.
The value for `COCCn1ccnc1C1CCCN(c2cnccn2)C1` (stereo unspecified) was 15.5%; that for `Cc1sc(Br)cc1S(=O)(=O)NCc1ccccn1` was -18.2%; that for `Cn1cc(C(=O)NCc2cncc3c2CCN(CC2CC2)C3)cn1` was 17.9%.
With `O=C(NCc1nnc2n1CCCCC2)N(Cc1ccncc1)C1CC1`, the cytotoxicity at 70.5 h is -4.16%.
The value for `Cc1nc(CN2CCCN(c3nccs3)CC2)no1` was 10.6%; that for `O=C1COc2ccc(S(=O)(=O)NC3CC3)c3c2N1CCC3` was 7.26%; that for `COc1ccc(NC(C)=O)cc1S(=O)(=O)Nc1ccon1` was -5.66%.
The value for `Cc1cc2c(=O)n3c(nc2s1)CCN(C(=O)c1ccncc1)CC3` was -20%; that for `Cc1ccc(N2CC[C@H]3O[C@@H](C(=O)N4CCCCO4)CC[C@H]32)nn1` was -4.7%.
On to `O=C(O)c1ccccc1CN1CCCC(Cc2ccn[nH]2)C1` (stereo unspecified), for which the cytotoxicity at 70.5 h was -8.52%.
Turning to `N#Cc1ccccc1CN1CCc2sccc2C1`, the cytotoxicity at 70.5 h is -8.96%.
As to `O=C1CC(N(C(=O)COc2ccc(F)cc2F)C2CC2)C(=O)N1` (stereo unspecified), the cytotoxicity at 70.5 h was -6.63%.
With `CCn1c(-c2ccccc2)nn(CC(=O)NCCc2c[nH]cn2)c1=O`, the cytotoxicity at 70.5 h is 28.4%.
The result for `CCn1c(C2CCN(C(=O)c3cc(Cl)no3)CC2)nn(C)c1=O` reads 39%.
In the case of `Cc1c[nH]c(CN2CCOC(c3ccc(F)cc3)C2)c(C)c1=O` (stereo unspecified), the cytotoxicity at 70.5 h was -3.86%.
The result for `CCCc1nc(C(=O)NCCN2CCC(c3ccccc3C)C2)cs1` (stereo unspecified) reads 0.739%.
The value for `Cc1cc(C(=O)N(CC(=O)O)CC(C)C)ccc1F` was -7.96%; that for `CC(Cc1ccco1)NC(=O)Nc1ccc(N2CCCC2)nc1` (stereo unspecified) was -7.87%.
The result for `Cc1cc(NC(=O)NCC(O)COc2ccccc2)n(C)n1` (stereo unspecified) reads -11.6%; that for `CCn1nccc1CNc1nc(N)nc2c1nc(C)n2C`, 6.56%.
